Laboratory results from US8084502B2, “Use of agmatine for protection of retinal ganglion cells” (priority 2007, dated 2011).

How the values were obtained:
Type in all cases: cell-based, rat
RGC-5 = assay: LDH assay, hypoxia-induced cell death; details: for LDH release: relative to maximum LDH release = 100; for concentration at which cell death was reduced significantly (LDH assay): preliminary studies
Protocol: The RGC-5 cell line, which is a RGC line developed from post-natal Sprague-Dawley rats, was grown in modified Dulbecco's Modified Eagle's Medium (DMEM; Gibco) supplemented with 10% of heat inactivated fetal bovine serum (Gibco) and 100 U/mL of penicillin and 100 μg/mL of streptomycin (Gibco). The cells were passaged every 2 to 3 days, and the cultures incubated at 37° C. in 5% of CO2 and air. […] For all experiments, cells were used at an 80% confluence.
Cultures were transferred into a closed hypoxic chamber (Form a Scientific Co.) in which oxygen level (5% of O2, 5% of CO2, 90% of N2) and temperature (37° C.) were controlled. After washing twice with deoxygenated serum-free DMEM, cells were maintained in the hypoxic chamber. Control cells were not exposed to hypoxia. Agmatine or BDNF were added to the culture medium at the start of injury as indicated.
Cell viability was quantified by measurement of LDH released by injured cells after hypoxic or normoxic culture for 12, 24, and 48 hours. LDH release is expressed as a value relative to the value of 100, which represents the maximum LDH release that occurred after freezing of each culture at −70° C. overnight and rapid thawing, which induces nearly complete cell damage. All experiments were performed in at least quadruplicate and repeated at least eight times using cell cultures derived from different platings. The preliminary studies with the LDH assay tested agmatine concentrations from 10 μM to 1 mM and BDNF concentrations from 5 ng/mL to 100 ng/mL.

ERK = assay: Western blot, phospho-ERK in hypoxic RGC-5; details: agmatine 100 μM, BDNF 10 ng/mL
Protocol: (§1) The RGC-5 cell line, which is a RGC line developed from post-natal Sprague-Dawley rats, was grown in modified Dulbecco's Modified Eagle's Medium (DMEM; Gibco) supplemented with 10% of heat inactivated fetal bovine serum (Gibco) and 100 U/mL of penicillin and 100 μg/mL of streptomycin (Gibco). The cells were passaged every 2 to 3 days, and the cultures incubated at 37° C. in 5% of CO2 and air. […] For all experiments, cells were used at an 80% confluence. Cultures were transferred into a closed hypoxic chamber (Form a Scientific Co.) in which oxygen level (5% of O2, 5% of CO2, 90% of N2) and temperature (37° C.) were controlled. […] The protein concentrations in the resultant supernatants were measured with the Bradford reagent, and equal amounts of protein (40 μg) were boiled in Laemmli sample buffer, followed by being resolved by 10 or 15% SDS-PAGE. The proteins were transferred to polyvinylidene fluoride membranes (Immobilon; Millipore, Billerica, Mass.) and then probed overnight with antibodies against JNK, ERK p44/42, p38, NF-κB p65, phospho-JNK, phospho-ERK p44/42, phospho-p38, phospho-NF-κB, (3-actin and histone 3 as indicated (diluted 1:1000). The immunoreactive bands were detected with horseradish peroxidase-conjugated secondary antibodies and visualized by enhanced chemiluminescence.

[1] = test system: Total MAPKs (JNK, ERK, and p38); assay: Western blot, total MAPKs in hypoxic RGC-5
Protocol: as §1

NF-κB = assay: Western blot, NF-κB in nuclear and cytosolic fraction of hypoxic RGC-5; details: for increase in phospho-NF-κB, nuclear fraction / increase in total NF-κB expression, cytoplasmic fraction: hypoxia 1 hour; for total NF-κB and histone 3, nuclear fraction: hypoxic RGC-5
Protocol: The RGC-5 cell line, which is a RGC line developed from post-natal Sprague-Dawley rats, was grown in modified Dulbecco's Modified Eagle's Medium (DMEM; Gibco) supplemented with 10% of heat inactivated fetal bovine serum (Gibco) and 100 U/mL of penicillin and 100 μg/mL of streptomycin (Gibco). The cells were passaged every 2 to 3 days, and the cultures incubated at 37° C. in 5% of CO2 and air. […] For all experiments, cells were used at an 80% confluence. Cultures were transferred into a closed hypoxic chamber (Form a Scientific Co.) in which oxygen level (5% of O2, 5% of CO2, 90% of N2) and temperature (37° C.) were controlled. After washing twice with deoxygenated serum-free DMEM, cells were maintained in the hypoxic chamber. Control cells were not exposed to hypoxia. Agmatine or BDNF were added to the culture medium at the start of injury as indicated. For fraction of cytosolic and nuclear proteins, cells were lysed with lysis buffer A (10 mM of HEPES (pH 7.4), 10 mM of KCl, 0.1 mM of EDTA, 0.1 mM of EGTA, 1 mM of DTT, 10 mM of Na3VO4, 50 mM of NaF, 1 mM of PMSF, 1 μg/mL of aprotinin, 1 μg/mL of leupeptin, 1 μg/mL of pepstatin) on ice for 15 minutes, and 10% of NP-40 was then added thereto. After vortexing for 10 seconds, lysates were centrifuged at 15,000 g at 4° C. for 1 minute. The supernatent was collected from the cytosolic fraction. The pellet was resuspended in lysis buffer C (20 mM of HEPES (pH 7.4), 400 mM of NaCl, 1 mM of EDTA, 1% of glycerol, 1 mM of DTT, 10 mM of Na3VO4, 50 mM of NaF, 1 mM of PMSF, 1 μg/mL of aprotinin, 1 μg/mL of leupeptin, 1 μg/mL of pepstatin) on ice for 30 minutes. Lysates were centrifuge at 15,000 g at 4° C. for 15 minutes. The supernatent was collected from the nuclear fraction. The protein concentrations in the resultant supernatants were measured with the Bradford reagent, and equal amounts of protein (40 μg) were boiled in Laemmli sample buffer, followed by being resolved by 10 or 15% SDS-PAGE. The proteins were transferred to polyvinylidene fluoride membranes (Immobilon; Millipore, Billerica, Mass.) and then probed overnight with antibodies against JNK, ERK p44/42, p38, NF-κB p65, phospho-JNK, phospho-ERK p44/42, phospho-p38, phospho-NF-κB, (3-actin and histone 3 as indicated (diluted 1:1000). The immunoreactive bands were detected with horseradish peroxidase-conjugated secondary antibodies and visualized by enhanced chemiluminescence.

Molecule | suppression of LDH release compared with BDNF (RGC-5; hypoxia 48 hours, 100 μM of agmatine vs 10 ng/mL BDNF, P<0.001) | LDH release (RGC-5; hypoxia 48 hours, 100 μM of agmatine) | LDH release (RGC-5; hypoxia 48 hours, 500 μM of agmatine) | concentration at which cell death was reduced significantly (LDH assay) (RGC-5; tested 10 μM to 1 mM) | expression of phospho-ERKs (ERK) | Total MAPKs (JNK, ERK, and p38) and β-actin [1] | increase in phospho-NF-κB, nuclear fraction (NF-κB) | increase in total NF-κB expression, cytoplasmic fraction (NF-κB) | total NF-κB and histone 3, nuclear fraction (NF-κB) | LDH release (RGC-5; hypoxia 48 hours, 10 ng/mL of BDNF) | LDH release (RGC-5; hypoxia 48 hours, 50 ng/mL of BDNF) | LDH release (RGC-5; hypoxia 48 hours, 100 ng/mL of BDNF) | concentration at which cell death was reduced significantly (LDH assay) (RGC-5; tested 5 ng/mL to 100 ng/mL)
N=C(N)NCCCCN [agmatine] | more effective in suppressing LDH release than 10 ng/mL BDNF | 25.60% | 27.09% | ≥ 100 µM | did not significantly affect | no significant changes | suppressed | inhibited | no significant changes |  |  |  | 
BDNF: recombinant human BDNF (R&D System), well-known protective neurotrophin for RGCs, used as comparator |  |  |  |  | completely blocked the expression of phospho-ERKs after exposure to hypoxia for 3 and 6 hours, but had no effect thereafter | no significant changes | not | not | no significant changes | 30.10% | 33.67% | 36.06% | ≥ 10 ng/mL
